From patent publication US12569468B2, “Use of palovarotene in treatment against HBV virus” (YANG SHENG TANG COMPANY, LTD., priority 2020, dated 2026)

System: HBV
Assay: Therapeutic effect on HepG2-hNTCP 2B1 infected by HBV (drug from day 6 after infection)
Assay type: cell-based, hepatitis B virus
Details: drug treatment from 6 days after HBV infection to day 12, Palovarotene at high concentrations (p<0.05), ETV 1 μM, vs blank group
Description: This experiment was carried out in a 24-well culture plate. […] About 1.5×10^5 HepG2-hNTCP 2B1 cells were plated in each well, and 500 μL of medium B was added to each well. After the cells adhered, medium A was used for replacement to perform the induction with Doxycycline during the whole experiment.
4 Days after the induction with Doxycycline, HBV infection was performed, and the amount of HBV in each well was 100 MOI. Before infection, HBV was diluted in medium C to obtain HBV solution, and the infection volume was 250 μL per well. During infection, the cell supernatant was first removed by suction, the HBV solution was added to the cells, and the cells were incubated for 24 hours, then the supernatant was collected as the sample of Day 0. Then the cells were washed three times with PBS, and fresh medium C was used for replacement. After that, the supernatant was collected every two days for detection, fresh medium C was used for replacement. On the 6th day, fresh drug-containing medium A was used for replacement to start drug treatment, then the supernatant was collected every two days for detection, and fresh drug-containing medium A was used for replacement, until the 12th day, all the supernatant and cells were collected for relevant detection. The detection items included HBsAg, HBeAg, HBV DNA, HBV cccDNA, and for the detection method, please refer to Example 1.

C=C1[C@H](CO)[C@@H](O)C[C@@H]1n1cnc2c(=O)[nH]c(N)nc21 [ETV, Entecavir]
no significant difference: HBeAg | level of HBV DNA | level of HBV cccDNA
